Tests used:
Assay in all cases: Herbicidal activity, post-emergence stem and leaf spray in greenhouse
Format in all cases: in vivo
Conditions in all cases: Post-emergence treatment
[1] = system: Setaria glauca (L.) Beauv.
Excerpt: (§1) Seeds of broadleaf weeds (Zinnia elegans Jacq. and Abutilon theophrasti Medic.) or grass weeds (Setaria glauca (L.) Beauv. and Echinochloa crusgalli (L.) Beauv.) were respectively sown in a paper cup having a diameter of 7 cm and containing nutrient soil. After sowing, the seeds were covered with 1 cm of soil, the soil was pressed and watered, and then the seeds were cultivated in a greenhouse according to a conventional method, and stems and leaves were sprayed after 2-3 leaf stage of the weeds.
(§2) The compounds of the present invention were dissolved in acetone, and then diluted with 0.1% aqueous solution of Tween 80 to form the test liquid. According to the design dose of the test, spray treatment was carried out by track sprayer (Engineer Research Ltd., pressure 1.95 kg/cm^2, volume 500 L/hm^2, track speed 1.48 km/h). The test was repeated for three times. The test material was treated and then placed in an operation hall. The medicinal liquid was naturally dried in the shade, and then was placed in a greenhouse and managed according to the conventional method. The response of the weeds to the drug was visually observed and recorded. After treatment, the state of growth of the respective weeds were visually observed regularly to determine the growth inhibition rate (%) in accordance with the following evaluation standard.
(§3) Growth inhibition rate (%): 0=no discernible action: 100=all weeds dead or not emerged.

Zinnia elegans Jacq. = system: Zinnia elegans Jacq.
Excerpt: as §1, §2, §3

[2] = system: Abutilon theophrasti Medic.
Excerpt: as §1, §2, §3

[3] = dose 37.5 g a.i./hm^2, Table 3 parallel test
[4] = dose 75 g a.i./hm^2, Table 3 parallel test

SMILES | growth inhibition rate % ([1]; dose 37.5 g a.i./hm^2, Table 2) | growth inhibition rate % ([1]; dose 150 g a.i./hm^2, Table 2) | growth inhibition rate % ([1]; dose 600 g a.i./hm^2, Table 2) | growth inhibition rate % [1, 3] | growth inhibition rate % [1, 4] | growth inhibition rate % (Zinnia elegans Jacq.; [3]) | growth inhibition rate % (Zinnia elegans Jacq.; [4]) | growth inhibition rate % [2, 3] | growth inhibition rate % [2, 4]
C=CCOc1c(S(C)(=O)=O)ccc(C(=O)c2c(C)nn(C)c2OC(=O)c2cc(C)n(CC)n2)c1C [Compound 1-26] | 75% | 100% | 100% | – | – | – | – | – | –
CCn1nc(C(=O)Oc2c(C(=O)c3ccc(S(C)(=O)=O)c(OCCOC)c3C)c(C)nn2C(C)C)cc1C [Compound 1-34] | 65% | 100% | 100% | – | – | – | – | – | –
CCn1nc(C)cc1C(=O)Oc1c(C(=O)c2ccc(S(C)(=O)=O)c(OCCOC)c2C)c(C)nn1C [Compound 1-140] | 80% | 100% | 100% | – | – | – | – | – | –
CCOCCOc1c(S(C)(=O)=O)ccc(C(=O)c2c(C)nn(C)c2OC(=O)c2cc(C)n(CC)n2)c1C [Compound 1-44] | 70% | 100% | 100% | – | – | – | – | – | –
CCn1nc(C(=O)Oc2c(C(=O)c3ccc(S(C)(=O)=O)c(OCC4CC4)c3C)c(C)nn2C)cc1C [Compound 1-20] | 65% | 100% | 100% | – | – | – | – | – | –
CCn1ncc(C(=O)c2ccc(S(C)(=O)=O)c(COCC(F)(F)F)c2Cl)c1OC(=O)c1cn(C)nc1C [KC3, fenpyrazone, reference compound] | – | – | – | 60% | 70% | 40% | 50% | 30% | 95%
CCn1nc(C(=O)Oc2c(C(=O)c3ccc(S(C)(=O)=O)c(OCCOC)c3C)cnn2CC)cc1C [Compound 1-32] | 90% | 100% | 100% | 90% | 100% | 100% | 100% | 100% | 100%
CCn1nc(C)cc1C(=O)Oc1c(C(=O)c2ccc(S(C)(=O)=O)c(OCCOC)c2C)cnn1CC [Compound 1-139] | 80% | 100% | 100% | – | – | – | – | – | –
CCn1nc(C(=O)Oc2c(C(=O)c3ccc(S(C)(=O)=O)c(OCCOC)c3C)c(C)nn2C)cc1C [Compound 1-33] | 70% | 100% | 100% | – | – | – | – | – | –
CCn1nc(C(=O)Oc2c(C(=O)c3ccc(S(C)(=O)=O)c(OCCOC)c3C)c(C)nn2CC)cc1C [Compound 1-37] | 100% | 100% | 100% | – | – | – | – | – | –
CCc1nn(C)c(OC(=O)c2cc(C)n(CC)n2)c1C(=O)c1ccc(S(C)(=O)=O)c(OCCOC)c1C [Compound 1-36] | 70% | 100% | 100% | – | – | – | – | – | –

Reference: US20230138225A1, “PYRAZOLE CARBOXYLATE ESTER COMPOUND AND USE THEREOF” (SHENYANG SINOCHEM AGROCHEMICALS R&D CO., LTD., priority 2020, published 2023)
